{"source": "patent US11858970B1", "about": "“Chili pepper seed isolated oligopeptide FTLE and application thereof in preventing or treating cancer” (CHINA AGRICULTURAL UNIVERSITY, priority 2022, dated 2024)", "system": "HepG2 cells", "assay": "HepG2 cell proliferation measured by MTT method", "format": "cell-based", "conditions": "peptide at 0.1, 0.3 and 0.6 mM, 24 hours, compared with other synthetic peptides", "description": "Chemical systhesis was conducted in accordance with the peptide sequences obtained by mass spectrometry identification analysis of Example 1 to obtain synthetic peptides. The effect of each peptide on HepG2 cell proliferation was studied, and the specific steps were as follows:\n1) HepG2 cell culture: hepG2 cells were obtained from the ATCC cell bank and were cultured in a DMEM medium containing 10% FBS at 37° C. in a 5% CO2 cell incubator. Cells were cultured in a 25 cm ^2 flask, passaged when cells were grown to a density of 70% to 90%, and seeded in a 96-well plate.\n2) Peptide fragment treatment: after 24 hours of cell culture in the 96-well plate, the original DMEM medium was aspirated from the wells. DMEM containing peptide fragments at concentrations of 0.1, 0.3, and 0.6 mM were added to each well to continue culturing for 24 hours.\n3) Cell proliferation rate measured by MTT method: MTT at a concentration of 5 mg/mL was added to a 96-well plate in 20 μL per well. After incubation for 4 hours, the liquid was aspirated from each well. 150 μL DMSO was added to each well. The absorbance was measured after reacting for 20 min."}
{"substance": "Phe-Thr-Leu-Glu (FTLE) [oligopeptide identified in chili pepper seed zymolyte, chemically synthesized for testing]", "values": [{"measurement": "HepG2 cell inhibition rate", "result": "better HepG2 cell inhibition rate than other oligopeptides"}]}
